Columns and labels:
[1] = Optical characterization (excitation/emission maxima, molar extinction coefficient); format: physicochemical; conditions: in water
[2] = biological target: T1, recombinant bovine CAII enzyme (bCAII) (Bos taurus, UniProt P00921); assay: Dansylamide (DNSA) displacement fluorescence assay on carbonic anhydrase catalytic site; format: binding; conditions: 0.25 μM bCAII, 5 μM DNSA, 20 mM Tris pH 8; triplicate; read-out: CAII receptor affinity (KD)
T1 construct: purchased Sigma-Aldrich; host or cells: E. coli
Description: The binding affinity of the compounds of formula (I) to Carbonic Anhydrase (CA) catalytic site was determined to assess the targeting efficacy of the molecular vectors, even after labeling the targeting ligand with the fluorescent portion of the probe.
Such enzyme in fact is highly available and has a catalytic site with high degree of homology in different carbonic anhydrase isoforms (Aggarwal M. et al., J Enzyme Inhib Med Chem 2013; 28(2): 267-277).
The dissociation constant (Ko) of compounds of formula (I) for bCAII was estimated by performing a fluorescence-based assay, exploiting the drop of fluorescence deriving from the displacement of carbonic anhydrase-bound dansylamide (DNSA) in presence of competitors and was adapted for application in 96-well plates from Wang S C et al., Biochem Mol Biol Educ. 2006, 34(5): 364-368. […] In both cases DNSA is excited at about 320 nm. Thus, excitation of carbonic anhydrase aromatic residues (Trp) at 285 nm generates an emission at 340 nm, that is quenched in presence of bound DNSA. The quenching occurs by FRET (fluorescence resonance energy transfer) to bound DNSA, which is in turn excited, emitting at 460 nm.
Molecules that bind to CA in the same binding site of DNSA, such as sulfonamides or derivatives, competitively displace DNSA from CA. The degree of displacement is function of the affinity of competitors and can be followed through the drop of fluorescence at 460 nm.
In detail, 5-(Dimethylamino)-1-naphthalenesulfonamide (dansylamide, DNSA, Sigma-Aldrich 218898) was reconstituted in 20 mM Tris pH 8, aliquoted and stored at −20° C.; bCAII (recombinant, expressed in E. Coli, Sigma-Aldrich) was divided in aliquots and stored at −20° C.
DNSA fluorescence emission at 462 nm from each well was recorded after excitation at 285 nm (Trp wavelength of excitation) and consequent selective excitation of DNSA bound to bCAII by FRET. Fractional saturation of bCAII was experimentally determined through normalization of fluorescence data between 1 (no compounds) and 0 (maximal DNSA displacement by presence of binding competitors), according to the equation below: […]
where r is fractional saturation, FLobs is the recorded fluorescence intensity, FLmin is the fluorescence intensity recorded at maximal concentration of compounds, and FLmax is fluorescence recorded in absence of compounds.
The KD of CA-binding compounds (=KDcomp) was then derived by mathematical fitting of experimental data according to the equation: […]
Mathematical fitting was performed using Microsoft Excel Solver.
All compounds were tested in triplicate.

HT-29 cells = assay: Time-dependent cell uptake / internalization in HT-29 cells by flow cytometry; format: cell-based, human; conditions: 1 μM; for Slope of cell-associated fluorescence increase / total cell-associated fluorescence over time: 37° C.; for Slope of cell-associated fluorescence increase: 1-6 hours; for total cell-associated fluorescence over time: 1 to 6 hours; for % internalization (mean ± std. dev.): after 2 hours at 37° C.
Description: The HT-29 cells were used as in vitro model to assess the cell uptake of the CA-IX targeting compounds of the invention, more specifically whether cellular internalization of compounds occurred after targeting to cell-surface-expressed CA-IX. Cellular uptake was evaluated by flow cytometry. […] Treatment with unconjugated dyes were used to estimate non-specific CA-IX-independent cellular uptake. Cell incubation on ice was used to discriminate the cell-associated fluorescence deriving from internalized and cell-surface associated compounds (37° C.), from the one deriving from solely cell surface-bound compounds (on ice). Treatment of HT-29 cells, grown in 24-well plates, was performed by rinsing cells in DPBS and then by incubation with treatment solutions, for the indicated times and temperatures, in the dark. At the end of treatment, cells were rinsed 3 times with cold DPBS, and detached from the plate with StemPro® Accutase® Cell Dissociation Reagent, collected in 1.5 mL tubes after dilution in DPBS and centrifuged (5 minutes, 350 RCF, 4° C.). The supernatant was then discarded, and the cell pellet was resuspended in 300 μL of cold FACS buffer, or in a suitable volume in order to obtain no more than 1,000 recorded events per μL during FACS analysis. Samples were analyzed with the flow cytometer Accuri™ C6 (BD Biosciences) using the 640 nm excitation laser and the emission 780/60 nm filter. At least 15000 valid events were collected for each sample. At the end of analysis, each sample was plotted in histograms, being X the fluorescence intensity (FL4-A) in log scale and Y the counts. Usually, a gaussian distribution of the cell population was observed. The data retrieved were the mean fluorescence of each population, considered the fluorescence intensity value of the corresponding sample. Independent replicates were performed for each experimental condition. Normalized cell-associated fluorescence was calculated with the following formula: […]
To evaluate the time dependent uptake, the experiments were conducted from 1 to 6 hours of cell treatment with a compound concentration of 1 μM, both on ice (internalization blocked) and at 37° C. (internalization-permissive temperature) in order to differentiate cell-associated fluorescence deriving from internalized compounds from that due to cell surface-associated one. The cell surface-associated fluorescence remained roughly constant over time while the binding of the corresponding unconjugated dyes was undetectable. […] The internalization potential was calculated as percentage of internalized compounds after 2 hours of cell treatment (arbitrarily chosen) at 37° C.

T1 sequence (P00921 whole entry): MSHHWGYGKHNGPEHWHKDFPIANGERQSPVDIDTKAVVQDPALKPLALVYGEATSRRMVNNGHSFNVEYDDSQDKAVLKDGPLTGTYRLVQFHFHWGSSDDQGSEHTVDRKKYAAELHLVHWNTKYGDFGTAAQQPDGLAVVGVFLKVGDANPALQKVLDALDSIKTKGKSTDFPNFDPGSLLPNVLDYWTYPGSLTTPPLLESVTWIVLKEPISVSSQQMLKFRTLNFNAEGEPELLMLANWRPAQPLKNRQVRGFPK

| molar extinction coefficient (ε) [1] | Kd [2] | Compound | Slope of cell-associated fluorescence increase (HT-29 cells) | total cell-associated fluorescence over time (HT-29 cells) | % internalization (mean ± std. dev.) (HT-29 cells) |
| --- | --- | --- | --- | --- | --- |
| 240000 M⁻¹ cm⁻¹ | 6.2 ± 0.6 nM | CC1(C)C(/C=C/C=C/C=C/C=C2/N(CCCCS(=O)(=O)O)c3ccc(C(=O)NC[C@H](O)[C@@H](O)[C@H](O)[C@H](O)CO)cc3C2(C)C)=[N+](CCCCS(=O)(=O)[O-])c2ccc(C(=O)NCCCCCCCC(=O)Nc3nnc(S(N)(=O)=O)s3)cc21 [Compound 1] | 1.0 | increased over time | 22.8 ± 8.2% |
| 260000 M⁻¹ cm⁻¹ | 3.7 ± 0.3 nM | CC1(C)C(/C=C/C=C/C=C/C=C2/N(CCCCS(=O)(=O)O)c3ccc(S(=O)(=O)O)cc3C2(C)C)=[N+](CCCCS(=O)(=O)[O-])c2ccc(C(=O)NCCCCCCCC(=O)Nc3nnc(S(N)(=O)=O)s3)cc21 [Compound 2] | 1.9 | increased over time | 40.8 ± 9.9% |
| 240000 M⁻¹ cm⁻¹ | 3.8 ± 0.5 nM | CC1(C)C(/C=C/C2=C(Oc3ccc(S(=O)(=O)O)cc3)C(=C/C=C3/N(CCCCS(=O)(=O)O)c4ccc(S(=O)(=O)O)cc4C3(C)C)/CCC2)=[N+](CCCCS(=O)(=O)[O-])c2ccc(C(=O)NCCCCCCCC(=O)Nc3nnc(S(N)(=O)=O)s3)cc21 [Compound 3] | 2.7 | increased over time | 49.2 ± 3.9% |

Source: patent US20250352675A1, “CA-IX TARGETING FLUORESCENT PROBES” (BRACCO IMAGING S.P.A., priority 2022, published 2025)
